The values below come from paper PMC6271231 (Molecules, 2014).

Entries after “also recorded” stand apart in the source; their conditions may differ.

The target in the assay is NA of A/PR/8/34 (H1N1) (Influenza A virus, UniProt P03468). Briefly: biochemical. The class given is biochemical, influenza A virus A/PR/8/34 (H1N1).
NA of A/PR/8/34 (H1N1), sequence (P03468 whole entry): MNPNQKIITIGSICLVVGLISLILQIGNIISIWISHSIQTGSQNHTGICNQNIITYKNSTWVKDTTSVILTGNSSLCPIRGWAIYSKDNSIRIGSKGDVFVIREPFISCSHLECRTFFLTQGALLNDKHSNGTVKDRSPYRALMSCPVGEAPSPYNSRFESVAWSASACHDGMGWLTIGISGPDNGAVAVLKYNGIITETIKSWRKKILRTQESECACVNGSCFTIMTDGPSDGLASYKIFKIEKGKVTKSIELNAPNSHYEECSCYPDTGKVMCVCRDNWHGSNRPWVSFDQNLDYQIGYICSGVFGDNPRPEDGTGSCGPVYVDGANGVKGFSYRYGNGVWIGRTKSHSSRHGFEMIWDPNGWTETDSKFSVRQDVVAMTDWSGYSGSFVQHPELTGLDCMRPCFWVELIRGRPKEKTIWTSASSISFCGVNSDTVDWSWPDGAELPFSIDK
As to `O=C(Oc1cc(O)c2c(c1)OC(c1cc(O)c(O)c(O)c1)C(O)C2)c1cc(O)c(O)c(O)c1` (single isomer, unassigned; (+)) [Compound 3, (+)-3,5,3',4',5'-penta-hydroxyflavan-7-gallate], the IC50 (as a rule, the concentration at which inhibition is half-maximal) is > 87.3 µM.

On to `CC1(C)O[C@@H]2Cc3c(O)cc(OC(=O)c4cc(O)c(O)c(O)c4)cc3O[C@@H]2c2cc(O)c(O)c(O)c21` [Compound 1, (2R,3R)-7-O-galloylplumbocatechin A], for which the half-maximal inhibitory concentration (IC50) is 59.7 µM; the “inhibitory effect against influenza H1N1 virus neuraminidase (in words)” value was “higher inhibitory activities on NA from influenza H1N1 virus than on those from influenza H3N2 and B viruses; also recorded: moderate inhibitory effects; also recorded: best results”.

Regarding `O=C(Oc1cc(O)c2c(c1)O[C@H](c1cc(O)c(OC(=O)c3cc(O)c(O)c(O)c3)c(O)c1)CC2)c1cc(O)c(O)c(O)c1` [Compound 4, (−)-7,4'-di-O-galloyltricetiflavan], the IC50 was > 67.3 µM.

As to `O=C(Oc1cc(O)c2c(c1)O[C@H](c1cc(O)c(O)c(O)c1)CC2)c1cc(O)c(O)c(O)c1` [Compound 2, (−)-5,3',4',5'-tetrahydroxyflavan-7-gallate], the half-inhibitory concentration (IC50) is 83.4 µM; the “inhibitory effect against influenza H1N1 virus neuraminidase (in words)” value is “higher inhibitory activities on NA from influenza H1N1 virus than on those from influenza H3N2 and B viruses; also recorded: moderate inhibitory effects”.
